Legend:
[1] = tested on: patients with major depressive disorder; test: Randomized, placebo controlled study of BTRX-246040 in patients with major depressive disorder; assay type: in vivo, human
Excerpt: The disclosed systems and methods were used in a randomized, placebo controlled study to identify patients that would respond to BTRX-246040 (LY2940094)—a nociceptin receptor antagonist (“NOPA”). Details about the chemical structure and other properties, uses and indications for BTRX-246040 are disclosed in J M Witkin et al., “Therapeutic Approaches for NOP Receptor Antagonists in Neurobehavioral Disorders: Clinical Studies in Majority Depressive Disorder and Alcohol Use Disorder with BTRX-246040,” the content of which is incorporated herein by reference in its entirety. Additionally, BTRX-246040, it's uses, indications, treatments, and forms are disclosed in U.S. Pat. No. 8,232,289 filed Nov. 10, 2010, titled “Spiropiperidine Compounds as ORL-1 Receptor Antagonists” and U.S. Publication NO. 2012/0214784 filed Aug. 23, 2012 titled “Spiropiperidine Compounds as ORL-1 Receptor Antagonists,” both of which are incorporated by reference in their entirety herein.
During the study disclosed herein, BTRX-246040 was administered once daily in patients with major depressive disorder without anhedonia. The study included 73 patients with 38 randomized to BTRX-246040 and 35 randomized to the placebo. The BTRX group had 17 responders and the placebo had 15 responders. The study included the following methods: • 28 days screening period • Eight (8 (weeks of active treatment • Off-drug follow up after one to two weeks • 104 MDD patients randomized • 1:1 ratio stratified by SHAPS≤4 and SHAPS>4 • dosage: 40 mg first week, then 80 mg onwards when tolerated
The following are known clinical questionnaires that were utilized at the indicated time points above: • Montgomery-Asberg Depression Scale (MADRS) • Hamilton Anxiety Scale (HAMA) • Hospital Anxiety and Depression Scale (HADS-A/HADS-D) • Snaith-Hamilton Pleasure Scale (SHAPS) • Dimensional Anhedonia Rating Scale (DARS) Tasks
The primary outcome of the study utilized was the clinical scale MADRS total at week 8. […]

[2] = tested on: patients with mood and anxiety spectrum disorders; test: FAST-MAS phase 2a study of CERC-501 in mood and anxiety spectrum disorders; assay type: in vivo, human
Excerpt: In another example, during a phase 2a study known as FAST-MAS was run to evaluate the Kappa Opioid Receptor (“KOR”) as a target for the treatment of mood and anxiety spectrum disorders. Additionally, CERC-501, it's uses, indications, treatments, and forms are disclosed in PCT Publication No. WO2018170492, filed Mar. 16, 2018, titled “Kappa Opioid Receptor Antagonists and Products and Methods Related Thereto” which is incorporated by reference herin in its entirety. During the trial, CERC-501 was tested to see whether it engaged key neural circuitry related to the hedonic response.
The FAST-MAS trial included a 30-day screening period, followed by 8 weeks of active treatment, follow up 12 weeks of off-drug follow up after baseline. The study included […] (of 163 enrolled) to include 45 on CERC-501 and 44 to the Placebo. The patients received […] daily for the 8 weeks of active treatment.
Patients were eligible for enrollment if they met both: • (i) DSM-IV TR critiera for at least one of: • MDD • Bipolar I or II Depressed • GAD • Social Phobia • Panic Disorder • PTSD; and • (ii) SHAPS score of ≥20
Furthermore, the primary outcome measures were the following measures included in Table 7 below. These include the fMRI, the SHAPS scale, and the PRT task as disclosed herein

| Compound | number of responders ([1]; 38 patients randomized to BTRX-246040, once daily, 40 mg first week then 80 mg, 8 weeks, high responder = MADRS decrease by 50% from baseline) | group level treatment effects versus placebo ([1]; across all subjects, MADRS total at week 8, FIGS. 15A-15B) | change on the MADRS scale in patients identified by the classifiers as higher responders ([1]; after the 8-week study, subgroup chosen by classifiers from baseline data, FIGS. 16A-16B) | impact on patients identified using the Bayesian Decision Lists versus patients generally that received active treatment ([2]; subgroup identified by rule list, FIGS. 26A-26B) | outcome and treatment response ([2]; whole patient cohort, 8 weeks of active treatment) |
| --- | --- | --- | --- | --- | --- |
| Cc1nn(-c2ncccc2CO)cc1CN1CCC2(CC1)OCC(F)(F)c1cc(Cl)sc12 [BTRX-246040] | 17 | did as well as the placebo | greater than 5 point | – | – |
| Cc1cc(C)cc([C@@H]2CCCN2Cc2ccc(Oc3ccc(C(N)=O)cc3F)cc2)c1 [CERC-501] | – | – | – | greater on the patients identified using the Bayesian Decision Lists than the impact generally on the patients that received the active treatment | illustrated a difference in the outcome and treatment response |

Source: patent US11857322B2, “Systems and methods for screening, diagnosing, and stratifying patients” (BlackThorn Therapeutics, Inc., priority 2018, dated 2024)
